Earlier results in paper PMC6832352, “Synthesis and Glycosidase Inhibition of Broussonetine M and Its Analogues” (Molecules, 2019).
Like-named read-outs stand apart in the source and are kept apart here.

Assays:
[1] = test system: β-glycosidase; parameters: method as in earlier work; details: cited from earlier work
[2] = target: T1, α-L-Rhamnosidase (Penicillium decumbens, UniProt S7ZS15); details: P. decumbens, cited from earlier work
T1 sequence (S7ZS15 1-894): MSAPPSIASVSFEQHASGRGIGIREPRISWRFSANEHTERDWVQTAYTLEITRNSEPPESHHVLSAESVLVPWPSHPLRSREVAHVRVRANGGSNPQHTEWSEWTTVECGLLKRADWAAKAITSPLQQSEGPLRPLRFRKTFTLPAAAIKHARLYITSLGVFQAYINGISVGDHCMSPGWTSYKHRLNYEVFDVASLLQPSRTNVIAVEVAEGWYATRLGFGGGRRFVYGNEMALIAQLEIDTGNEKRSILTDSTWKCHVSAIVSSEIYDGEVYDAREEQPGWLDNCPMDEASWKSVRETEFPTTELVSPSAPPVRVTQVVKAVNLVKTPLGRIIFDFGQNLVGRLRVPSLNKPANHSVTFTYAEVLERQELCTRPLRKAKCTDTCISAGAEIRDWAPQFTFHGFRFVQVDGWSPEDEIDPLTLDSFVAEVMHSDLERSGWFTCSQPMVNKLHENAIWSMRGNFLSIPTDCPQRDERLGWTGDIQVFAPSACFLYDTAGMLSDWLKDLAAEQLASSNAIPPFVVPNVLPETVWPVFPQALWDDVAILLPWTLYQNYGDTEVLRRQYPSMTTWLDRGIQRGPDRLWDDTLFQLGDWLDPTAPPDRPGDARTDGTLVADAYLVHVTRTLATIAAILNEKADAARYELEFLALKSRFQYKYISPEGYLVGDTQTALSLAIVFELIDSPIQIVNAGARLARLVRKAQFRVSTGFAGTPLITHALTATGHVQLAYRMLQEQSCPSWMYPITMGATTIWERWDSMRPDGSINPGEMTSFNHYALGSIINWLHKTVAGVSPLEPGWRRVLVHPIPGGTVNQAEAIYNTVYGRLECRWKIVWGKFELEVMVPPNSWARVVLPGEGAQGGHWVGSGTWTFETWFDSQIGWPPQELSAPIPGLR

[3] = target: T2, β-Glucosidase (Bos taurus, UniProt F1MNT6); details: Bovine liver, cited from earlier work
T2 sequence (F1MNT6 1-469): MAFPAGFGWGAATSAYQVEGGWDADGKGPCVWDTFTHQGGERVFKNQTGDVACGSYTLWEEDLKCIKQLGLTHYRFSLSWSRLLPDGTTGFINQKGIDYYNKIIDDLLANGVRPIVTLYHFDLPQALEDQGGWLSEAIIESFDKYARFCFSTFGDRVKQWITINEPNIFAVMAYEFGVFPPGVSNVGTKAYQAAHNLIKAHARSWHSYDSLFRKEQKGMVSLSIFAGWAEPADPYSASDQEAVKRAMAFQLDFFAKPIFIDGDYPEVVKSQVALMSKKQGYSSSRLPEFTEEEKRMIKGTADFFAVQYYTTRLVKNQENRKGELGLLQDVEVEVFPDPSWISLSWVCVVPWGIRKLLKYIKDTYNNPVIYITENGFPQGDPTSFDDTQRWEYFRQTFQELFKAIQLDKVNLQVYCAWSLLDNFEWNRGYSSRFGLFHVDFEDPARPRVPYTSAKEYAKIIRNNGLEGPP

[4] = target: T3, α-Glucosidase (Saccharomyces cerevisiae, UniProt P53341); details: Yeast, cited from earlier work; for inhibition %: at 1000 μM
T3 construct: purchased Sigma-Aldrich Chemical Co

[5] = target: T4, α-L-Fucosidase (Bos taurus, UniProt Q2KIM0); details: Bovine kidney, cited from earlier work
T4 construct: purchased Sigma-Aldrich Chemical Co; host or cells: bovine kidney
T4 sequence (Q2KIM0 23-468): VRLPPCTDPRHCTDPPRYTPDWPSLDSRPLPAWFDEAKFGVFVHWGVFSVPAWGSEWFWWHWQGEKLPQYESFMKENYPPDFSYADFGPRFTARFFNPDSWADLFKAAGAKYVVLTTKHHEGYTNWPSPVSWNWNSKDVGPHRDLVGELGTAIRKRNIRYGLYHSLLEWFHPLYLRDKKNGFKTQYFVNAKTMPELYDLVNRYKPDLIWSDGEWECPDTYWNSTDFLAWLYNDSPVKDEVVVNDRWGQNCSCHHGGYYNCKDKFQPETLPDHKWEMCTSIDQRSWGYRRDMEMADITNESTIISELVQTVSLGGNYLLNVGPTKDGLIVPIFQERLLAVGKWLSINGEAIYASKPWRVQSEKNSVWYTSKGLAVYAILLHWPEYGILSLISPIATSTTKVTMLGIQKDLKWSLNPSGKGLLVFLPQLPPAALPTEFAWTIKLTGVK

[6] = target: T5, α-Mannosidase (Canavalia ensiformis, UniProt C0HJB3); details: Jack bean, cited from earlier work
T5 construct: purchased Sigma-Aldrich Chemical Co
T5 sequence (C0HJB3 1-981): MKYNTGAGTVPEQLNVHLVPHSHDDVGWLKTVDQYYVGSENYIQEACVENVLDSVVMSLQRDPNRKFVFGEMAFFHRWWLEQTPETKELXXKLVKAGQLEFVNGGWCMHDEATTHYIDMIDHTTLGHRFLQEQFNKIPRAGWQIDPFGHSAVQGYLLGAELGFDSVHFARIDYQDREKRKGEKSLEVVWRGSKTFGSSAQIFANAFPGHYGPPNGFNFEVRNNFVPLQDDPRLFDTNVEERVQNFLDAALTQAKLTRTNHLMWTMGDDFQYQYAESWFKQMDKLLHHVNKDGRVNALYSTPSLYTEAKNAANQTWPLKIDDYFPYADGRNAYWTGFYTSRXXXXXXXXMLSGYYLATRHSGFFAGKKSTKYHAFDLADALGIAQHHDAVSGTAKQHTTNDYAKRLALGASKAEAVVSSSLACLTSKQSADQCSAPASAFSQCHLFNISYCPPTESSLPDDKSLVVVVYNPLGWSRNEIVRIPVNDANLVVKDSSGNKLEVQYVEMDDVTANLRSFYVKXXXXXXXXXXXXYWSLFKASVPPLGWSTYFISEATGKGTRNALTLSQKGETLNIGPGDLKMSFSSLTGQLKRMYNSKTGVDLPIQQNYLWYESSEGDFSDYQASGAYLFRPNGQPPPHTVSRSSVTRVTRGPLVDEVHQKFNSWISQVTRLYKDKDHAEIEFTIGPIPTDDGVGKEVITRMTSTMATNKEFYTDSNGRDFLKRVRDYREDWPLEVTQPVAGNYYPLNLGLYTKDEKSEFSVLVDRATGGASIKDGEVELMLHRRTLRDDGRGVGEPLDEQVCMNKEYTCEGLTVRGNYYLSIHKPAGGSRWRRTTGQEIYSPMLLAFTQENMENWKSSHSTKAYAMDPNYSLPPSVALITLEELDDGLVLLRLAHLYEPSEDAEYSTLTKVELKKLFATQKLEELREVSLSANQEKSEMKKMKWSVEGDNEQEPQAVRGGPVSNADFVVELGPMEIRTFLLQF

[7] = target: T6, β-Glucuronidase (Escherichia coli, UniProt P05804); parameters: method as in PMID 22928735; details: E.coli, cited from earlier work; for inhibition %: at 1000 μM
T6 construct: purchased Sigma-Aldrich Chemical Co

[8] = target: T7, α-Galactosidase (Coffea arabica, UniProt Q42656); details: Coffee beans, cited from earlier work
T7 construct: purchased Sigma-Aldrich Chemical Co

[9] = target: β-Glucosidase; details: Almond, cited from earlier work; for inhibition %: at 1000 μM
[10] = test system: β-Galactosidase; details: β-Galactosidase, Bovine liver, cited from earlier work
[11] = target: Rat intestinal maltase; details: cited from earlier work
[12] = target: β-Mannosidase; details: Snail, cited from earlier work
[13] = target: T8, α-Glucosidase (Oryza sativa subsp. japonica, UniProt Q653V7); details: Rice, cited from earlier work
T8 construct: purchased Sigma-Aldrich Chemical Co

[14] = target: T9, Amyloglucosidase (Aspergillus niger, UniProt P69328); parameters: method as in PMID 21157573; details: A. niger, cited from earlier work
T9 construct: purchased Sigma-Aldrich Chemical Co
T9 sequence (P69328 25-640): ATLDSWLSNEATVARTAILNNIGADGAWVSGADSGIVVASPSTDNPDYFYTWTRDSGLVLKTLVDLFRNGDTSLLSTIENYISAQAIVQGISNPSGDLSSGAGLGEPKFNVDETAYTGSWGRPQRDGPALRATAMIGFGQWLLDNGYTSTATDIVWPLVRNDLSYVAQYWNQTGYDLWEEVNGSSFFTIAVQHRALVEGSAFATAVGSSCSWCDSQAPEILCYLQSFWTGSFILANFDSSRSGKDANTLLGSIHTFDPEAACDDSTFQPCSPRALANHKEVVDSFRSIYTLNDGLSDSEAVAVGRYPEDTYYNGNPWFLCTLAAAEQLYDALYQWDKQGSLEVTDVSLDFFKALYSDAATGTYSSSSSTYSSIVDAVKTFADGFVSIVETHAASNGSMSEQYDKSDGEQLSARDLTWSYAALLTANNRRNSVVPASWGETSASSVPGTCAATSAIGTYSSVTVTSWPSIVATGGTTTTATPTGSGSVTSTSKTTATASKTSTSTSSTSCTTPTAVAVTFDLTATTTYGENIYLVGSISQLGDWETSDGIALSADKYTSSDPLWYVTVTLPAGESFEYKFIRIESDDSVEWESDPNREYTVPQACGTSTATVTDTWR

T6 sequence (P05804 whole entry): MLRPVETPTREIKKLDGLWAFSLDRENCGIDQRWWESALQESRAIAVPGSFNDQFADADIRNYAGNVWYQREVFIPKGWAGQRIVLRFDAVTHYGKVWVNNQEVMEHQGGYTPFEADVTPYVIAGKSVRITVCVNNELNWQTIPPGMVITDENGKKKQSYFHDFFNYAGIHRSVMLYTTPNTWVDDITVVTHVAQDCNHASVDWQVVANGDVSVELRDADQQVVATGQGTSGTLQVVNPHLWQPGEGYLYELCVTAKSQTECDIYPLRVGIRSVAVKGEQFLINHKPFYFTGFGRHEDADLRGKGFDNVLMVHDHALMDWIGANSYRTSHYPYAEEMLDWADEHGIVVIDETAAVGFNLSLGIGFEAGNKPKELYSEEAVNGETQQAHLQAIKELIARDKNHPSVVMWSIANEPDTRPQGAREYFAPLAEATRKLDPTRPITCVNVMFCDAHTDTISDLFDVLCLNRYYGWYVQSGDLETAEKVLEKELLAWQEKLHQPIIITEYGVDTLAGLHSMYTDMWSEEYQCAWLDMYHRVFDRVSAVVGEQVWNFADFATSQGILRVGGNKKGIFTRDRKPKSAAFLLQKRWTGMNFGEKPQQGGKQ
T8 sequence (Q653V7 34-885): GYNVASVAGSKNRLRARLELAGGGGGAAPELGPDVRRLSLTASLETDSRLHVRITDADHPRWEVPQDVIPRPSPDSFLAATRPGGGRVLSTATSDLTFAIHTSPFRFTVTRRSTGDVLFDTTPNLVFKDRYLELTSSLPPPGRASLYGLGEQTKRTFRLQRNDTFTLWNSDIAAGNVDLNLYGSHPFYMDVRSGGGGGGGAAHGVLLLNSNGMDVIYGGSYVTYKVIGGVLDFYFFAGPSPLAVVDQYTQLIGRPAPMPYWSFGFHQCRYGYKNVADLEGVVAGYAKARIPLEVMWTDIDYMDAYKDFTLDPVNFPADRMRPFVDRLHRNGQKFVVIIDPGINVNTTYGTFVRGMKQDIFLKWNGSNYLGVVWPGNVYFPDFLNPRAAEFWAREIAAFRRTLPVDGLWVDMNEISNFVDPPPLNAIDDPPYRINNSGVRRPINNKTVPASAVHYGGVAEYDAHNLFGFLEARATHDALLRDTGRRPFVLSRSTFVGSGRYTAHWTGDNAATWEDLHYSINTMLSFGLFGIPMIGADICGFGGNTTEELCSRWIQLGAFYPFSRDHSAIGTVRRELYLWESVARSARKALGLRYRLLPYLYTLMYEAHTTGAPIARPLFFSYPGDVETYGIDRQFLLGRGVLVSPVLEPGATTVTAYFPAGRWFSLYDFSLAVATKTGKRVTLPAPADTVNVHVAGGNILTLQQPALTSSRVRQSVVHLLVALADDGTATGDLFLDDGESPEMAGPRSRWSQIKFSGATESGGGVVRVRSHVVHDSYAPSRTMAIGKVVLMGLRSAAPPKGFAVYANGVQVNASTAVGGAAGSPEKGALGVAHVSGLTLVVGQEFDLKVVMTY
T3 sequence (P53341 whole entry): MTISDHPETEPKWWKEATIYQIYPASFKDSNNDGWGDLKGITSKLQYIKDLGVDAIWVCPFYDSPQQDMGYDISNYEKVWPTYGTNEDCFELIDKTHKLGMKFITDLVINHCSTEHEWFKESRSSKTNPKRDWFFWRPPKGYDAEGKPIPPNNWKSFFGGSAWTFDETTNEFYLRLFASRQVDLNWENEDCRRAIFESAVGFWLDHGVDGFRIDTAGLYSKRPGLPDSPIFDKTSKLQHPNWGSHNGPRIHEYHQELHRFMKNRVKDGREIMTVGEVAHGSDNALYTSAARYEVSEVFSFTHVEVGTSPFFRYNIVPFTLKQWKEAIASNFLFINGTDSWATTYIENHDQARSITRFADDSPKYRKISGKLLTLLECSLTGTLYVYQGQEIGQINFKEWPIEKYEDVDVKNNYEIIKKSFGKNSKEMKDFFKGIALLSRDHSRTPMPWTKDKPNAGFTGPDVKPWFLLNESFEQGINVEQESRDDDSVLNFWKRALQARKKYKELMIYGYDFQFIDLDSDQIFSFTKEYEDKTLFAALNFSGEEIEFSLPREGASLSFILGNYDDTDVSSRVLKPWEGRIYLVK
T7 sequence (Q42656 16-378): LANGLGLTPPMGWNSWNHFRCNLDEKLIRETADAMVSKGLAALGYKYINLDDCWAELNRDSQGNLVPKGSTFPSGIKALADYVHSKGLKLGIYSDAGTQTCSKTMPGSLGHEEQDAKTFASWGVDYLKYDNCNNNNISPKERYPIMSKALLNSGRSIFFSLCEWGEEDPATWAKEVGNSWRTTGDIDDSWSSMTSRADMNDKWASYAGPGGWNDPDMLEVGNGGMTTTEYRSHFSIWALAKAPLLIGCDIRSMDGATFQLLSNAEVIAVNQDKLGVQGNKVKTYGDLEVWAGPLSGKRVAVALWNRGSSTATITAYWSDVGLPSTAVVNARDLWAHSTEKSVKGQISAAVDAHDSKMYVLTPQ

Row | SMILES | β-glycosidase inhibition (in words) [1] | inhibition % ([2]; at 1000 μM) [%] | IC50 [4] [µM] | inhibition % [4] [%] | inhibition % ([5]; at 1000 μM) [%] | IC50 [6] [µM] | inhibition % ([6]; at 1000 μM) [%] | IC50 [7] [µM] | inhibition % [7] [%] | inhibition % ([8]; at 1000 μM) [%] | IC50 [9] [µM] | IC50 [10] [µM] | IC50 [11] [µM] | IC50 [12] [µM] | inhibition % ([12]; at 1000 μM) [%] | further results
1 | O=C(CCCO)CCCCCCCC[C@@H](O)[C@H]1N[C@H](CO)[C@@H](O)[C@@H]1O [compound 4, broussonetine E] | potent β-glycosidase inhibition |  |  |  |  |  |  |  |  |  |  |  |  |  |  | 
2 | OC[C@@H]1N[C@@H](CO)[C@H](O)[C@H]1O (single isomer, unassigned) [L-DMDP (ent-2)] |  | 45.6 | […] | 34.9 | […] | […] | 17.3 | […] | 0.8 | 13.8 | […] | […] | 1.2 | […] | 12.6 | inhibition % ([3]; at 1000 μM): 4.6%; inhibition % [9]: 12.1%; inhibition % ([10]; at 1000 μM): […]
3 | OCC1NC(C(O)CCCCC2CCCC3(CCCO3)O2)C(O)C1O (stereo not shown) [compound 6, broussonetine G] | potent β-glycosidase inhibition |  |  |  |  |  |  |  |  |  |  |  |  |  |  | 
4 | OC[C@@H]1NC[C@H](O)[C@H]1O [LAB (ent-1), 1,4-dideoxy-1,4-imino-L-arabinitol] |  |  | 70 |  |  | > 1000 |  |  |  |  | > 1000 | > 1000 |  | > 1000 |  | inhibition % ([3]; at 1000 μM (per NI footnote)): 13%; IC50 [13]: 3.2 µM; IC50 [5]: > 1000 µM; inhibition % ([5]; at 1000 μM (per NI footnote)): 0%; inhibition % ([6]; at 1000 μM (per NI footnote)): 0%; IC50 [8]: > 1000 µM; inhibition % ([8]; at 1000 μM (per NI footnote)): 2%; IC50 [14]: > 1000 µM; inhibition % ([14]; at 1000 μM (per NI footnote)): 41%; inhibition % ([10]; at 1000 μM (per NI footnote)): 16%; inhibition % ([12]; at 1000 μM (per NI footnote)): 1%
5 | OCC1NC(CO)C(O)C1O (stereo not shown) [DMDP (2), 2,5-dihydroxymethyl-3,4-dihydroxypyrrolidine] |  | 24.1 | […] | 15.6 | 37.2 | […] | 31.5 | […] | 0.4 | 10.5 | […] | […] | 290 | 721 |  | 
6 | O=C(CCCCO)CCCCCCC[C@@H](O)[C@H]1N[C@H](CO)[C@@H](O)[C@@H]1O [compound 5, broussonetine F] | potent β-glycosidase inhibition |  |  |  |  |  |  |  |  |  |  |  |  |  |  | 
7 | OC[C@H]1NC[C@@H](O)[C@@H]1O [DAB (1), 1,4-dideoxy-1,4-imino-D-arabinitol] |  |  | 0.15 |  |  |  |  |  |  |  | 250 | > 1000 |  | > 1000 |  | inhibition % ([2]; at 1000 μM (per NI footnote)): 5%; IC50 [3]: 638 µM; IC50 [13]: 250 µM; IC50 [5]: > 1000 µM; inhibition % ([5]; at 1000 μM (per NI footnote)): 11%; IC50 [8]: > 1000 µM; inhibition % ([8]; at 1000 μM (per NI footnote)): 7%; IC50 [14]: 362 µM; inhibition % ([10]; at 1000 μM (per NI footnote)): 37%; inhibition % ([12]; at 1000 μM (per NI footnote)): 10%
8 | OC[C@@H]1N[C@H](CO)[C@@H](O)[C@@H]1O [D-gluco-DMDP] |  | 24.1 | 167 |  | 37.2 | […] | 13.3 | […] | 5.1 | 38.4 | 256 | […] | 138 | […] | 14.6 | 
9 | OC[C@@H]1N[C@@H](CO)[C@@H](O)[C@H]1O [L-altro-DMDP] |  |  | […] | 35.1 |  | […] | 37.6 | […] | 2.0 |  | […] | […] | 754 | […] | 3.7 | inhibition % ([3]; at 1000 μM): 10.3%; inhibition % ([13]; at 1000 μM): 9.5%; inhibition % [9]: 15.9%; inhibition % ([10]; at 1000 μM): […]
